Values of other authors as cited in US20190380987A1, “COMPOSITION AND METHOD FOR TREATING MUCOLYTIC AND INFLAMMATORY AIRWAY CONDITIONS” (priority 2018, published 2019).

What was measured:
CF patients = settings: 2700 mg of oral NAC per day in divided doses of 900 mg, controls declined

solubility in alcohol (alcohol): soluble | solubility in chloroform (chloroform): practically insoluble | solubility in ether (ether): practically insoluble | solubility in water (water): soluble
SMILES: CC(=O)N[C@@H](CS)C(=O)O [N-acetylcysteine]
lung function decline (CF patients): did not experience lung function decline
